Reference: BindingDB's records for doi:10.1016/j.bmcl.2017.07.010 (De Montfort University, 2017)

Assay: Inhibition of human CYP1B1 transfected in HEK293 cells assessed as cisplatin EC50 at 6 times IC50 by MTT assay (Rvb = 65 uM)

COc1ccccc1/C=C/C(=O)c1ccc[nH]1
EC50: 10 µM

O=C(/C=C/c1ccccc1Cl)c1ccc[nH]1
EC50: 10 µM
